Results taken from patent US9839642B2, “Beta-tetrazolyl-propionic acids as metallo-beta-lactamase inhibitors” (priority 2014, dated 2017).
Like-named read-outs stand apart in the source and are kept apart here.

Experiments:
[1] = tested on: Klebsiella pneumoniae expressing VIM-1 (IHMA599644); assay: Antibiotic potentiation activity: synergistic concentration (MITC95) with imipenem, growth by OD600; assay type: cell-based
How it was run: (§1)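 Strains grown overnight at 35° C, resuspended in saline, diluted 1:100 into 1.1×CAMHB; imipenem at 1 μg/ml or 4 μg/ml with test compound 200 μM to 0.195 μM. Incubated 22 hours to 24 hours at 35° C, OD600 read; MITC95 is lowest compound concentration inhibiting 95% of growth.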

[2] = tested on: Escherichia coli expressing NDM-1 (CLB30005); assay: as above; assay type: cell-based
How it was run: as §1

[3] = tested on: Serratia marcescens expressing IMP-1 (CL5741); assay: as above; assay type: cell-based
How it was run: as §1

IMP-1 = IMP-1 (Serratia marcescens, UniProt P52699); assay: Enzyme activity: determination of IC50, fluorescence assay with CCF2-FA substrate; assay type: biochemical; conditions: CCF2-FA 1.25 μM, 2 hours at 25° C., read-out: IMP1 IC50
How it was run: (§2)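 Enzyme (1 pM NDM-1, 2 pM IMP-1, 30 pM VIM-1) incubated with inhibitor (20 to 0.00063 μM) and 1.25 μM CCF2-FA in 100 mM KH2PO4 pH 7, 0.005% Tween-20, 10 μM ZnSO4, 2 h at 25 °C. Fluorescence read at 460 nm (ex 405 nm); IC50 by 4-parameter fit.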

VIM-1 = VIM-1 (Pseudomonas aeruginosa, UniProt A0A0F7KYQ8); assay: as above; assay type: biochemical; conditions: CCF2-FA 1.25 μM, 2 hours at 25° C., read-out: VIM1 IC50
How it was run: as §2

NDM-1 = NDM-1 (Klebsiella pneumoniae, UniProt C7C422); assay: as above; assay type: biochemical; conditions: CCF2-FA 1.25 μM, 2 hours at 25° C., read-out: NDM1 IC50
How it was run: as §2

[4] = K. pneumoniae IHMA599644 (VIM-1), 95% inhibition of growth
[5] = E. coli CLB30005 (NDM-1), 95% inhibition of growth
[6] = S. marcescens CL5741 (IMP-1), 95% inhibition of growth
[7] = 95% inhibition of bacterial growth, strain IHMA599644
[8] = 95% inhibition of bacterial growth, strain CLB30005
[9] = 95% inhibition of bacterial growth, strain CL5741

Sequence of NDM-1 (C7C422 29-270, looked up, species assumed): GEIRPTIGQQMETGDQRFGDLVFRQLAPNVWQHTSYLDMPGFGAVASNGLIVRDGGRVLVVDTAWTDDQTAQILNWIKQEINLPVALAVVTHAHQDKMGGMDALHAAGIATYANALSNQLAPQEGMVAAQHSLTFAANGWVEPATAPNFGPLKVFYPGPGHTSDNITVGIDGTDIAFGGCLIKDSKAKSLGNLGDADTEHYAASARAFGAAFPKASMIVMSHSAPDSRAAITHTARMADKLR
Sequence of IMP-1 (P52699 19-246, looked up, species assumed): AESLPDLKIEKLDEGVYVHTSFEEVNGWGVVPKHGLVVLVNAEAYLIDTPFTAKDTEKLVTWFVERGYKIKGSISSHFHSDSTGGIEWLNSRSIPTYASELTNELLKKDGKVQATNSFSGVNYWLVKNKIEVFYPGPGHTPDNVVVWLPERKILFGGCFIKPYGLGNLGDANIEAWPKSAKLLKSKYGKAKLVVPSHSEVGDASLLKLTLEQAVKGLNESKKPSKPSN

Row | Compound | VIM1 KP599644 MITC95 [1, 4] [µM] | NDM1 EC30005 MITC95 [2, 5] [µM] | IMP1 SM5741 MITC95 [3, 6] [µM] | IC50 (IMP-1; IMP-1 enzyme 2 pM) [nM] | IC50 (VIM-1; VIM-1 enzyme 30 pM) [nM] | IC50 (NDM-1; NDM-1 enzyme 1 pM) [nM] | VIM1 KP599644 MITC95 [1, 7] [µM] | NDM1 EC30005 MITC95 [2, 8] [µM] | IMP1 SM5741 MITC95 [3, 9] [µM] | IC50 (IMP-1; enzyme 2 pM) [nM] | IC50 (VIM-1; enzyme 30 pM) [nM] | IC50 (NDM-1; enzyme 1 pM) [nM]
1 | CCC[C@H](C(=O)O)[C@H](Cc1ccc(CCCO)cc1)c1nn[nH]n1 [Example 254, (2S)-2-[(1S)-2-[4-(3-hydroxypropyl)phenyl]-1-(2H-tetrazol-5-yl)ethyl]pentanoic acid] | 25 | 5.2 | 31 | 180 | 9 | 37 | – | – | – | – | – | –
2 | CCC[C@H](C(=O)O)[C@H](Cc1ccc(-c2cncc(CN3CCCCC3)c2)cc1)c1nn[nH]n1 [Example 191, (2S)-2-[(1S)-2-{4-[5-(piperidin-1-ylmethyl)pyridin-3-yl]phenyl}-1-(2H-tetrazol-5-yl)ethyl]pentanoic acid] | – | – | – | – | – | – | 62 | 25 | 62 | 1100 | 8.3 | 260
3 | CC(C)[C@H](C(=O)O)[C@H](Cc1ccccc1)c1nnn[nH]1 [Example 20, (2S,3S)-2-isopropyl-4-phenyl-3-(1H-tetrazol-5-yl)butanoic acid] | – | – | – | – | – | – | 69 | 4.7 | 128 | 390 | 22 | 26
4 | CCCC[C@@H](C(=O)O)[C@@H](Cc1ccc(-c2cn[nH]c2)cc1)c1nn[nH]n1 [Example 186, (2R)-2-[(1R)-2-[4-(1H-pyrazol-4-yl)phenyl]-1-(2H-tetrazol-5-yl)ethyl]hexanoic acid] | – | – | – | – | – | – | >200 | 200 | 12.5 | 140 | 60 | 750
5 | CCC[C@H](C(=O)O)[C@H](Cc1ccc(-c2ccc(CN(C)C)cc2)cc1)c1nnn[nH]1 [Example 240, (2S)-2-[(1S)-2-{4′-[(dimethylamino)methyl]biphenyl-4-yl}-1-(1H-tetrazol-5-yl)ethyl]pentanoic acid] | – | – | – | – | – | – | 125 | 25 | 7.8 | 75 | 6.5 | 100
6 | O=C(O)[C@@H](CCCCc1ccccc1)[C@H](Cc1ccc2c(c1)OCO2)c1nnn[nH]1 [Example 37, (2S)-2-[(1S)-2-(1,3-benzodioxol-5-yl)-1-(2H-tetrazol-5-yl)ethyl]-6-phenylhexanoic acid] | – | – | – | – | – | – | >200 | 200 | 106 | 120 | 10 | 27
7 | NC(=O)CCCC[C@H](C(=O)O)[C@H](Cc1ccccc1)c1nnn[nH]1 [Example 35, (S)-7-amino-7-oxo-2-((S)-2-phenyl-1-(1H-tetrazol-5-yl)ethyl)heptanoic acid] | – | – | – | – | – | – | >200 | 100 | >200 | 3100 | 210 | 1400
8 | CCC[C@H](C(=O)O)[C@H](Cc1ccc(-c2ccc(C(C)(C)O)nc2)cc1)c1nn[nH]n1 [Example 213, (2S)-2-[(1S)-2-{4-[6-(1-hydroxy-1-methylethyl)pyridin-3-yl]phenyl}-1-(2H-tetrazol-5-yl)ethyl]pentanoic acid] | – | – | – | – | – | – | 75 | 9.4 | 18.8 | 120 | 17 | 28
9 | CCCC[C@@H](C(=O)O)[C@@H](Cc1ccc(-c2cnn(-c3ccccc3)c2)cc1)c1nn[nH]n1 [Example 187, (2R)-2-[(1R)-2-[4-(1-phenyl-1H-pyrazol-4-yl)phenyl]-1-(2H-tetrazol-5-yl)ethyl]hexanoic acid] | – | – | – | – | – | – | >200 | >200 | 103 | 180 | 140 | 980
10 | CCC[C@H](C(=O)O)[C@H](Cc1ccc(CCN2CCCC2=O)cc1)c1nn[nH]n1 [Example 253, (2S)-2-[(1S)-2-{4-[2-(2-oxopyrrolidin-1-yl)ethyl]phenyl}-1-(2H-tetrazol-5-yl)ethyl]pentanoic acid] | 50 | 12.5 | 38 | 97 | 9.1 | 34 | – | – | – | – | – | –
